Like-named read-outs stand apart in the source and are kept apart here.
Assays:
in vivo [1] = settings: mouse, po
Protocol: The test was carried out on male mice (CD1 Charles Rivers), of 22 to 24 g, without food for 16 hours. […] The mortality is noted during the 7 days following the treatment.

[2] = Variation of the body temperature (duration of action); type: in vivo, male mice (CD1 Charles Rivers)
Protocol: (§1) The test is carried out on male mice (CD1 Charles Rivers) weighing 25-30 g, which have fasted for 6 hours.
The temperature of the body is noted by means of a thermocouple inserted about 1.5 cm in the rectum and connected to an electric temperature recorder. […]
The duration of action of the products is determined, using the doses able to reduce the temperature by 1° to 1.5° C.

Hypothermic activity = type: in vivo, male mice (CD1 Charles Rivers); settings: Mus musculus, read-out: Effective dose (-1° C.)
Protocol: as §1
The temperature of the body is noted by means of a thermocouple inserted about 1.5 cm in the rectum and connected to an electric temperature recorder.
The products are administered by oral or sub-cutaneous route and the temperatures are noted at the instant 0 and at 30 minutes, 1 hour, 2 hours and 2-and-a-half hours after treatment.
The degree of hypothermia is evaluated as the difference between the treated animals and the controls, and the dose necessary to reduce the body temperature by 1° C. is noted.

in vivo [3] = assay: in vivo; parameters: species or system male mice (CD1 Charles Rivers); settings: mouse, in vivo; oral route; male CD1 mice; method of Miller and Tainter; read-out: DE50 (dose which causes diarrhoea in 50% of the animals)
Protocol: The test is carried out on male mice (CD1 Charles Rivers) weighing 25 to 30 g, which have fasted for 6 hours. The product dissolved at 5% in methocel is administered by oral route by means of an oesophage probe.
Control animals receive only the excipient.
After treatment, the animals are placed separately in cages of which the base is covered with blotting paper, and they are put under observation for 30, 60, 120 and 180 minutes.
The sheets of absorbent paper are changed after each observation.
The consistency of the feces is evaluated according to the method of Randall and Baruth (Arch. Int. Pharmacodyn. 220, 94, 1976) according to the following scale of values.
1: feces slightly soft, with or without a damp halo,
2: feces slightly soft, with a well-defined circle of humidity,
3: feces soft with a large circle of humidity,
4: feces without consistency with a very large circle of humidity.
For each product, the dose is noted which causes diarrhoea in 50% of the animals according to the method of Miller and Tainter (Proc. Soc. Exp. Biol. Med., 57, 261, 1944).

[4] = test system: ileum isolated from guinea-pig; assay: Test of ileum isolated from guinea-pig; settings: Cavia porcellus, agonist activity, Tyrode solution, 37° C., read-out: pD2 (negative logarithm of the dose which produces 50% of the maximum effect) (converted)
Protocol: Pieces of ileum are removed from guinea-pigs killed by decapitation. The isolated ileum is placed in 10 cm^3 of Tyrode solution at 37° C. and aerated with a mixture of oxygen (95%) and carbon dioxide gas (5%). The contractions due to the products are registered by means of a detector connected to a polygraph. […].
The possible antagonist activity of the products is tested vis-a-vis acetylcholine.
The agonist activity is expressed in pD2 (negative logarithm of the dose which produces 50% of the maximum effect).
The antagonist activity is expressed in DE50 (dose reducing by 50% the maximum response induced by acetylcholine).

With CON=CC1=CCCN(C(=O)Oc2ccc(OC)c(OC)c2)C1 [Example 14] the LD50 at 168 h (in vivo [1]) was 175 mg/kg, the “Variations of the body temperature” value ([2]; 1. mg/kg os, 0 min) was “+0.1 °C” and the “Variations of the body temperature” value ([2]; 1. mg/kg os, 30 min) was -1.1 °C. The “Variations of the body temperature” value ([2]; 1. mg/kg os, 60 min) was -1.4 °C, the “Variations of the body temperature” value ([2]; 1. mg/kg os, 120 min) was -0.2 °C and the “Variations of the body temperature” value ([2]; 1. mg/kg os, 180 min) was “+0.1 °C”. For the same compound, the “Variations of the body temperature” value ([2]; 1. mg/kg sc, 0 min) was “+0.2 °C”, the “Variations of the body temperature” value ([2]; 1. mg/kg sc, 30 min) was -0.7 °C and the “Variations of the body temperature” value ([2]; 1. mg/kg sc, 60 min) was -1.3 °C. For the same compound, the “Variations of the body temperature” value ([2]; 1. mg/kg sc, 120 min) was -0.5 °C, the ED (-1 C) (Hypothermic activity; oral route (O.R.)) was 0.7 mg/kg and the ED (-1 C) (Hypothermic activity; sub-cutaneous route (SC.R)) was 0.7 mg/kg. It also gave an ED50 (in vivo [3]) of over 50 mg/kg and an EC50 [4] of over 100 µM.

In the case of CON=CC1=CCCN(C(=O)Oc2ccc(C(C)C)cc2)C1 [Example 13, Methyl ether of 1-p-isopropylphenyloxycarbonyl-1,2,5,6-tetrahydropyridin-3-carboxaldehyde oxime], the LD50 at 168 h (in vivo [1]) is reported as over 1000 mg/kg, the “Variations of the body temperature” value ([2]; 6.25 mg/kg os, 0 min) is reported as “+0.2 °C” and the “Variations of the body temperature” value ([2]; 6.25 mg/kg os, 30 min) is reported as -0.4 °C. For the same compound, the “Variations of the body temperature” value ([2]; 6.25 mg/kg os, 60 min) was -1.6 °C, the “Variations of the body temperature” value ([2]; 6.25 mg/kg os, 120 min) was -0.4 °C and the “Variations of the body temperature” value ([2]; 6.25 mg/kg os, 180 min) was -0.1 °C. The “Variations of the body temperature” value ([2]; 12.5 mg/kg sc, 0 min) was “+0.2 °C”, the “Variations of the body temperature” value ([2]; 12.5 mg/kg sc, 60 min) was -0.7 °C and the “Variations of the body temperature” value ([2]; 12.5 mg/kg sc, 120 min) was -1.4 °C. The “Variations of the body temperature” value ([2]; 12.5 mg/kg sc, 180 min) was -1.1 °C, the ED (-1 C) (Hypothermic activity; oral route (O.R.)) was 3.4 mg/kg and the ED (-1 C) (Hypothermic activity; sub-cutaneous route (SC.R)) was 8.8 mg/kg. The ED50 (in vivo [3]) was over 50 mg/kg and the EC50 [4] was over 100 µM.

In the case of CON=CC1=CCCN(C(=O)Oc2ccccc2)C1 [Example 6, Methyl ether of 1-phenyloxycarbonyl-1,2,5,6-tetrahydropyridin-3-carboxaldehyde oxime], the LD50 at 168 h (in vivo [1]) is reported as 500 mg/kg, the “Variations of the body temperature” value ([2]; 3.5 mg/kg sc, 0 min) is reported as -0.1 °C and the “Variations of the body temperature” value ([2]; 3.5 mg/kg sc, 30 min) is reported as -0.6 °C. For the same compound, the “Variations of the body temperature” value ([2]; 3.5 mg/kg sc, 60 min) was -1.4 °C, the “Variations of the body temperature” value ([2]; 3.5 mg/kg sc, 120 min) was -0.9 °C and the “Variations of the body temperature” value ([2]; 3.5 mg/kg sc, 180 min) was 0.1 °C. The “Variations of the body temperature” value ([2]; 7.5 mg/kg os, 0 min) was -0.1 °C, the “Variations of the body temperature” value ([2]; 7.5 mg/kg os, 30 min) was -1.1 °C and the “Variations of the body temperature” value ([2]; 7.5 mg/kg os, 60 min) was -1.6 °C. The “Variations of the body temperature” value ([2]; 7.5 mg/kg os, 120 min) was -0.6 °C, the ED (-1 C) (Hypothermic activity; oral route (O.R.)) was 4.6 mg/kg and the ED (-1 C) (Hypothermic activity; sub-cutaneous route (SC.R)) was 2.3 mg/kg. For the same compound, the ED50 (in vivo [3]) was 100 mg/kg and the EC50 [4] was over 100 µM.

Compound CON=CC1=CCCN(C(=O)Oc2ccc(F)cc2)C1 [Example 20, 1(4-fluorophenyloxycarbonyl)-1,2,5,6-tetrahydropyridine-3-carboxaldehyde-O-methyloxime] has an LD50 at 168 h (in vivo [1]) of 500 mg/kg, an ED (-1 C) (Hypothermic activity; oral route (O.R.)) of 3.2 mg/kg and an ED (-1 C) (Hypothermic activity; sub-cutaneous route (SC.R)) of 1.5 mg/kg. It also gave an ED50 (in vivo [3]) of over 50 mg/kg and an EC50 [4] of over 100 µM.

CON=CC1=CCCN(C(=O)Oc2ccc(C(C)(C)CC(C)(C)C)cc2)C1 [Example 22, 1-[4-(1,1,3,3-tetramethylbutyl)phenyloxycarbonyl]-1,2,5,6-tetrahydropyridine-3-carboxaldehyde-O-methyloxime] showed an LD50 at 168 h (in vivo [1]) of 500 mg/kg, an ED (-1 C) (Hypothermic activity; oral route (O.R.)) of 7 mg/kg and an ED (-1 C) (Hypothermic activity; sub-cutaneous route (SC.R)) of 15 mg/kg. The ED50 (in vivo [3]) was over 50 mg/kg and the EC50 [4] was 100 µM.

Compound CON=CC1=CCCN(C(=O)Oc2ccc(Br)cc2)C1 [Example 19, 1-(4-bromophenyloxycarbonyl)-1,2,5,6-tetrahydropyridine-3-carboxaldehyde-O-methyloxime] has an LD50 at 168 h (in vivo [1]) of over 1000 mg/kg, an ED (-1 C) (Hypothermic activity; oral route (O.R.)) of 1.7 mg/kg and an ED (-1 C) (Hypothermic activity; sub-cutaneous route (SC.R)) of 1.3 mg/kg. The ED50 (in vivo [3]) was over 50 mg/kg and the EC50 [4] was over 100 µM.

With CON=CC1=CCCN(C(=O)Oc2ccc(C)cc2)C1 [Example 21, 1-(4-methylphenyloxycarbonyl)-1,2,5,6-tetrahydropyridine-3-carboxaldehyde-O-methyloxime] the LD50 at 168 h (in vivo [1]) was 250 mg/kg, the ED (-1 C) (Hypothermic activity; oral route (O.R.)) was 1.5 mg/kg and the ED (-1 C) (Hypothermic activity; sub-cutaneous route (SC.R)) was 1.2 mg/kg. The ED50 (in vivo [3]) was over 50 mg/kg and the EC50 [4] was over 100 µM.

For COC(=O)C1=CCCN(C)C1 [Arecoline HBr, reference compound], the “Variations of the body temperature” value ([2]; 3.5 mg/kg sc, 0 min) was -0.1 °C, the “Variations of the body temperature” value ([2]; 3.5 mg/kg sc, 30 min) was -1.5 °C and the “Variations of the body temperature” value ([2]; 3.5 mg/kg sc, 60 min) was -0.1 °C. The “Variations of the body temperature” value ([2]; 3.5 mg/kg sc, 120 min) was “+0.2 °C”, the “Variations of the body temperature” value ([2]; 3.5 mg/kg sc, 180 min) was “+0.2 °C” and the “Variations of the body temperature” value ([2]; 200 mg/kg os, 0 min) was “+0.1 °C”. The “Variations of the body temperature” value ([2]; 200 mg/kg os, 30 min) was -1.1 °C, the “Variations of the body temperature” value ([2]; 200 mg/kg os, 60 min) was -1.0 °C and the “Variations of the body temperature” value ([2]; 200 mg/kg os, 120 min) was -0.2 °C. For the same compound, the “Variations of the body temperature” value ([2]; 200 mg/kg os, 180 min) was -0.1 °C.
